These results are taken from PubChem BioAssay (NCI).

Where “and” joins values, the source holds several entries; their conditions need not be identical. Equal values may be shown once.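 The compound was tested at five concentrations on cells cultured in 96-well plates, with a 48-hour exposure period. GI50 is the concentration that inhibits growth by half. TGI denotes the concentration required for complete inhibition of growth.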 Where a SMILES comes first, the peptide text is derived from it. The star is where a group is joined. Boc = CC(C)(C)OC(=O)*; Bn = c1ccc(C*)cc1 Some results are limits rather than exact numbers.

Test in all cases: NCI-60 cell line screen, 48 h
Assay [1] concerns DU-145 prostate.
Assay [2] deals with UO-31 renal.
In assay [3] the test system is BT-549 breast.
In assay [4] the test system is SF-268 CNS.
The test system of assay [5] is UACC-257 melanoma.
Assay [6] concerns NCI-H23 lung.
The subject of assay [7] is HCC-2998 colon.
In assay [8] the test system is HT29 colon.
For assay [9], the system named is IGROV1 ovarian.
Assay [10] relates to T-47D breast.
The test system of assay [11] is CAKI-1 renal.
For assay [12], the system named is UACC-62 melanoma.
Assay [13] deals with MALME-3M melanoma.
Assay [14] concerns SW-620 colon.
The subject of assay [15] is HOP-92 NSCLC.
Assay [16] deals with 786-0 renal.
In assay [17] the test system is A549 NSCLC.

With `CC1=CC(=O)N(n2c(Cc3ccc(Cl)cc3)n[nH]c2=O)C1=O`, the TGI in assay [1], in assay [2], in assay [3], in assay [4], in assay [5] and in [6] was over 100 µM throughout. Further, the TGI in assay [7] is over 100 µM; in assay [8], 55.3 µM; in assay [9], over 100 µM; in assay [10] it was over 100 µM; in assay [11], over 100 µM; in [12], 45.4 µM. Also, the TGI in [13] is over 100 µM; in assay [14], over 100 µM; in assay [15] it was 67.7 µM; in [16], over 100 µM; in assay [17] it was over 100 µM.

Consider `O=c1[nH]nc(Cc2ccccc2)n1/N=C/c1ccc([N+](=O)[O-])cc1`, for which the TGI in [1], in assay [2], in [3], in assay [4], in assay [5] and in assay [6] was over 100 µM in each case. Also, the TGI in assay [7], in assay [8], in assay [9], in assay [10], in assay [11] and in assay [12] was over 100 µM throughout. Besides, the TGI in assay [13], in [14], in assay [15], in assay [16] and in assay [17] was over 100 µM each time.

Turning to `CC1=N[C@@](C)(C2CC3C=CC2C3=O)COC1=O` (stereo partly drawn), the TGI in assay [1], in assay [2], in assay [3], in [4], in assay [5] and in [6] was over 100 µM each time. For the same compound, the TGI in assay [7], in assay [8], in assay [9], in assay [10], in assay [11] and in assay [12] was over 100 µM throughout. Moreover, the TGI in assay [13], in [14], in assay [15], in [16] and in assay [17] was over 100 µM each time.

As for `CCCC(=O)OC[n+]1ccc(-c2c(COC(=O)NC(C)C)c(COC(=O)NC(C)C)c3n2CCC3)cc1`, the TGI in assay [1], in assay [2], in assay [3], in assay [4], in assay [5] and in assay [6] was over 100 µM in each case. The TGI in assay [7], in assay [8], in assay [9], in assay [10], in assay [11] and in assay [12] was over 100 µM throughout. For the same compound, the TGI in assay [13], in [14], in [15], in assay [16] and in [17] was over 100 µM in each case.

As to `COc1cc(CNc2c3ccccc3nc3ccccc23)cc(OC)c1OC`, the TGI was over 52.1 µM in assay [1]; 11.5 µM in [2]; 16.2 µM in assay [3]; 16.5 µM in assay [4]; 11.2 µM in assay [5]; 18.5 µM in assay [6]. Also, the TGI was 11.9 µM in assay [7]; 14.3 µM in assay [8]; 25.2 µM in assay [9]; 41.9 µM in assay [10]; 14.1 µM in assay [11]; 7.74 µM in assay [12]. Besides, the TGI in [13] is 12.5 µM; in [14], 10.1 µM; in assay [15] it was 16.7 µM; in assay [16], 14.3 µM; in [17], 12.7 µM.

Turning to `Cc1cccc(C)c1N=Nc1ccc(O)c(CN(C)C)c1`, the TGI in [1], in [2], in assay [3], in assay [4], in [5] and in assay [6] was over 100 µM each time. Also, the TGI is 48.8 µM in assay [7]; 69.6 µM in assay [8]; over 100 µM in assay [9]; 79.3 µM in [10]; over 100 µM in assay [11]; 64.6 µM in assay [12]. Also, the TGI in assay [13] is 76.2 µM; in assay [14], over 100 µM; in assay [15], over 100 µM; in [16], over 100 µM; in [17] it was over 100 µM.

Regarding `CNC(=O)C(CC(C)C)NC(=O)C(C)NC(=O)C(Cc1ccc(OCc2ccccc2)cc1)NC(=O)C(COCc1ccccc1)NC(=O)OC(C)(C)C` (stereo not drawn) (Boc-S(Bn)Y(Bn)AL-NHMe; configuration not given here), the TGI in [1] was over 100 µM; in assay [2], over 100 µM; in assay [3], 55.5 µM and 40.4 µM; in [4], 53.8 µM and 46.5 µM; in [5] it was over 100 µM; in assay [6], > 71.1 µM and 43.3 µM. The TGI in assay [7] was > 87.3 µM and 9.17 µM; in assay [8], > 38.9 µM and 30.9 µM; in assay [9], 53.9 µM and 63.7 µM; in assay [10] it was > 74 µM and 27.1 µM; in assay [11] it was over 100 µM; in [12] it was over 31.6 µM. Further, the TGI in [13] was > 100 µM and 18.1 µM; in [14], 31 µM and 28.7 µM; in assay [15], > 80.8 µM and 51.7 µM; in [16], 54.9 µM and 39.4 µM; in [17], > 100 µM and 51.4 µM. The GI50 in assay [7] is 29.3 µM and 3.13 µM; in assay [10] it was 28.2 µM and 5.15 µM; in assay [17] it was > 70.9 µM and 16.9 µM.

Take `O=C(NCCCN(CCCCN(CCCNC(=O)c1cc(S(=O)(=O)O)cc(O)c1O)C(=O)c1cc(S(=O)(=O)O)cc(O)c1O)C(=O)c1cc(S(=O)(=O)O)cc(O)c1O)c1cc(S(=O)(=O)O)cc(O)c1O`: the TGI in assay [1], in assay [2], in assay [3], in [4], in assay [5] and in [6] was over 100 µM each time. For the same compound, the TGI in assay [7], in assay [8], in assay [9], in assay [10], in assay [11] and in [12] was over 100 µM each time. The TGI in [13], in assay [14], in assay [15], in [16] and in [17] was over 100 µM throughout.

As for `CCC12C=CCN3CCC4(c5cc(C(c6ccc(OC)cc6)C6Cc7ccccc7N6)c(OC)cc5N(C)C4C(O)(C(=O)OC)C1O)C32` (stereo not drawn), the TGI in assay [1] is over 100 µM; in assay [2], 31.5 µM; in assay [3], 80.6 µM; in assay [4], over 100 µM; in [5], over 100 µM; in assay [6], over 100 µM. For the same compound, the TGI is 57.5 µM in assay [7]; over 100 µM in assay [8]; 51.2 µM in assay [9]; 9.98 µM in assay [10]; over 100 µM in assay [11]; 31.4 µM in assay [12]. Besides, the TGI in assay [13] was over 100 µM; in assay [14] it was over 100 µM; in [15], 8.14 µM; in assay [16], over 100 µM; in assay [17], over 100 µM.

Consider `CC(C)Cn1cnc2c(Cl)nc3ccccc3c21`, for which the TGI in assay [1], in assay [2], in assay [3], in [4], in assay [5] and in assay [6] was over 100 µM throughout. For the same compound, the TGI in assay [7], in [8], in assay [9], in assay [10], in assay [11] and in assay [12] was over 100 µM throughout. Besides, the TGI in [13], in assay [14], in assay [15], in assay [16] and in [17] was over 100 µM throughout.
